Reference: EP0942911B1, “BENZOPYRANOPYRROLE AND BENZOPYRANOPYRIDINE ALPHA-1 ADRENERGIC COMPOUNDS” (Abbott Laboratories, priority 1996, dated 1998)
Counter-ions that a name gives are not always drawn.

Tests used:
α-1A adrenoreceptor [1] = assay: Functional antagonism: inhibition of PE-induced contraction of canine prostate strips (Schild plot); assay type: cell-based; conditions: phenylephrine-induced contraction
From the text: Canine prostate strips were used in vitro as previously described (Hieble, J.P., Boyce, A.J. and Caine, M., Fed. Proc., 45: 2609-2614 (1986)), to determine antagonist potencies against phenylephrine-induced contractions.
(§1) Functional assays indicative of pharmacologically defined α-1 adrenoreceptors were used to further characterize compounds. Inhibition of phenylephrine (PE)-induced contraction of canine prostate smooth muscle can be correlated with α-1A adrenoreceptor activation. […] For each of these models, agonist dose response curves were repeated against increasing concentrations of test agent to derive a Schild plot [log ([…]) against log (molarity of test agent)] to determine the pA2.

α-1B adrenoreceptor = target: T1, α-1B adrenoreceptor (Rattus norvegicus, UniProt P15823); assay: cell-based; conditions: phenylephrine-induced contraction; Schild plot; read-out: In Vitro Characterization (pA2) Rat Spleen (converted)
T1 construct: from tissue; host or cells: rat spleen
T1 sequence (P15823 1-515): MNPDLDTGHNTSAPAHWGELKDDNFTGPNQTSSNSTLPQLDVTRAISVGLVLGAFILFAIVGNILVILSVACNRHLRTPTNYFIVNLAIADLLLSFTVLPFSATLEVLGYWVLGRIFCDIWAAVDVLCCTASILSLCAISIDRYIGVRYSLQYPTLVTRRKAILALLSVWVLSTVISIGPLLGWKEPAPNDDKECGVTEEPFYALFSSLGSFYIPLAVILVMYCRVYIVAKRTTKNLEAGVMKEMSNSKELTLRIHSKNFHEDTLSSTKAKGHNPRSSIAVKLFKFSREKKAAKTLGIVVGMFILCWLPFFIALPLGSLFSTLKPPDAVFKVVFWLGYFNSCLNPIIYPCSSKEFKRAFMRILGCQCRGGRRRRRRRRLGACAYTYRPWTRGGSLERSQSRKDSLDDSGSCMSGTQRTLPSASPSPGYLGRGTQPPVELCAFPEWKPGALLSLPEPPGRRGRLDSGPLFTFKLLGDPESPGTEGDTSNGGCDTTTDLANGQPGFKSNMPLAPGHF
From the text: as §1

α-1A adrenoreceptor [2] = target: T2, α-1A adrenoreceptor (Rattus norvegicus, UniProt P43140); assay: cell-based; conditions: phenylephrine-induced contraction; Schild plot; read-out: In Vitro Characterization (pA2) Rat Vas (converted)
T2 sequence (P43140 1-466): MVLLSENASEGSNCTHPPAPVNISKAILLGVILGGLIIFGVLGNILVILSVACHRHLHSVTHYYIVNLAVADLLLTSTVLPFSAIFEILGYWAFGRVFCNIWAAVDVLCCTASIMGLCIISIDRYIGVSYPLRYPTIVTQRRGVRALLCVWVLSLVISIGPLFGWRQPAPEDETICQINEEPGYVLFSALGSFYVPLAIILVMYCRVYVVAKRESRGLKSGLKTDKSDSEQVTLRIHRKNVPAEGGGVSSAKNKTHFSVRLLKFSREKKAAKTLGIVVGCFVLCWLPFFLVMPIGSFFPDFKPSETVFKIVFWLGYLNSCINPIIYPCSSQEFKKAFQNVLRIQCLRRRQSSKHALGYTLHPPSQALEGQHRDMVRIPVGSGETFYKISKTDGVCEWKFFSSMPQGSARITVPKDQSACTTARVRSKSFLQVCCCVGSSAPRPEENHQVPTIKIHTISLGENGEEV
From the text: as §1

Row | Structure (SMILES) | In Vitro Characterization (pA2) Dog Prostate (α-1A adrenoreceptor [1]) | Kb (α-1B adrenoreceptor) | Kb (α-1A adrenoreceptor [2])
1 | COc1cccc2c1OC[C@H]1CN(CCCn3c(=O)[nH]c4c(sc5ccccc54)c3=O)C[C@@H]21.Cl (racemic) [Example 68, 3-[3-((±)-cis-6-Methoxy-1,2,3,3a,4,9b-hexahydro-[1]-benzopyrano[3,4-c]pyrrol-2-yl)propyl]-[1]benzthieno[3,2-d]pyrimidine-2,4(1H,3H)-dione hydrochloride] | 7.02 |  | 
2 | COc1cccc2c1[C@H]1CN(CCCCn3c(=O)[nH]c4c(sc5cccnc54)c3=O)C[C@H]1CO2 [Example 2, 3-[4-((3aS,9bS)-cis-9-Methoxy-1,2,3,3a,4,9b-hexahydro-[1]-benzopyrano[3,4-c]pyrrol-2-yl)butyl]-pyrido[2',3':4,5]thieno[3,2-d]pyrimidine-2,4(1H,3H)-dione hydrochloride] | 7.95 |  | 
3 | COc1cccc2c1[C@@H]1CN(CCn3c(=O)[nH]c4c(sc5ccccc54)c3=O)C[C@@H]1CO2.Cl (racemic) [Example 65, 3-[2-((±)-cis-9-Methoxy-1,2,3,3a,4,9b-hexahydro-[1]-benzopyrano[3,4-c]pyrrol-2-yl)ethyl]-[1]benzthieno[3,2-d]pyrimidine-2,4(1H,3H)-dione hydrochloride] | 7.76 |  | 
4 | COc1cccc2c1[C@@H]1CN(CCCCn3c(=O)[nH]c4c(sc5cccnc54)c3=O)C[C@H]1CO2 [Example 3, 3-[4-((3aS,9bR)-trans-9-Methoxy-1,2,3,3a,4,9b-hexahydro-[1]-benzopyrano[3,4-c]pyrrol-2-yl)butyl]-pyrido[2',3':4,5]thieno[3,2-d]pyrimidine-2,4(1H,3H)-dione hydrochloride] | 9.43 |  | 
5 | COc1cccc2c1[C@@H]1CN(CCCCn3c(=O)[nH]c4c(sc5cccnc54)c3=O)C[C@@H]1CO2 [Example 1, 3-[4-((3aR,9bR)-cis-9-Methoxy-1,2,3,3a,4,9b-hexahydro-[1]-benzopyrano[3,4-c]pyrrol-2-yl)butyl]-pyrido[2',3':4,5]thieno[3,2-d]pyrimidine-2,4(1H,3H)-dione hydrochloride] | 8.69 |  | 
6 | COc1cccc2c1[C@@H]1CN(CCCCn3c(=O)[nH]c4c(sc5nc(C)ccc54)c3=O)C[C@H]1CO2 [Example 45, 3-[4-((3aS,9bR)-trans-9-Methoxy-1,2,3,3a,4,9b-hexahydro-[1]-benzopyrano[3,4-c]pyrrol-2-yl)butyl]-7-methyl-pyrido[3',2':4,5]thieno[3,2-d]pyrimidine-2,4(1H,3H)-dione hydrochloride] |  | 1.29 nM | 0.257 nM
7 | COc1cccc2c1[C@@H]1CN(CCCCn3c(=O)[nH]c4c(sc5ccc(Cl)nc54)c3=O)C[C@@H]1CO2 [Example 37, 3-[4-((3aR,9bR)-cis-9-Methoxy-1,2,3,3a,4,9b-hexahydro-[1]-benzopyrano[3,4-c]pyrrol-2-yl)butyl]-8-chloro-pyrido[2',3':4,5]thieno[3,2-d]pyrimidine-2,4(1H,3H)-dione hydrochloride] |  | 9.33 nM | 0.204 nM
8 | COc1cccc2c1[C@@H]1CCN(CCCCn3c(=O)[nH]c4c(sc5ncccc54)c3=O)C[C@H]1CO2 (racemic) [Example 85, 3-[4-((±)-trans-10-Methoxy-1,3,4,4a,5,10b-hexahydro-2H-[1]-benzopyrano[3,4-c]pyrido-3-yl)butyl]-pyrido[3',2':4,5]thieno[3,2-d]pyrimidine-2,4(1H,3H)-dione dihydrochloride] | 8.6 |  | 
9 | COc1ccc2sc3c(=O)n(CCCCN4C[C@@H]5COc6cccc(OC)c6[C@@H]5C4)c(=O)[nH]c3c2n1 [Example 30, 3-[4-((3aR,9bR)-cis-9-Methoxy-1,2,3,3a,4,9b-hexahydro-[1]-benzopyrano[3,4-c]pyrrol-2-yl)butyl]-8-methoxy-pyrido[2',3':4,5]thieno[3,2-d]pyrimidine-2,4(1H,3H)-dione hydrochloride] |  | 21.4 nM | 0.251 nM
10 | COc1cccc2c1[C@@H]1CN(CCCn3c(=O)[nH]c4c(sc5ccccc54)c3=O)C[C@@H]1CO2.Cl (racemic) [Example 66, 3-[3-((±)-cis-9-Methoxy-1,2,3,3a,4,9b-hexahydro-[1]-benzopyrano[3,4-c]pyrrol-2-yl)propyl]-[1]benzthieno[3,2-d]pyrimidine-2,4(1H,3H)-dione hydrochloride] | 7.48 |  | 
11 | COc1cccc2c1[C@@H]1CN(CCCCn3c(=O)[nH]c4c(sc5nccc(OC)c54)c3=O)C[C@@H]1CO2 [Example 36, 3-[4-((3aR,9bR)-cis-9-Methoxy-1,2,3,3a,4,9b-hexahydro-[1]-benzopyrano[3,4-c]pyrrol-2-yl)butyl]-9-methoxy-pyrido[3',2':4,5]thieno[3,2-d]pyrimidine-2,4(1H,3H)-dione hydrochloride] |  | 8.13 nM | 0.537 nM
12 | Cl.O=c1[nH]c2c(sc3ccccc32)c(=O)n1CCN1C[C@@H]2COc3ccccc3[C@@H]2C1 (racemic) [Example 69, 3-[2-((±)-cis-1,2,3,3a,4,9b-hexahydro-[1]-benzopyrano[3,4-c]pyrrol-2-yl)ethyl]-[1]benzthieno[3,2-d]pyrimidine-2,4(1H,3H)-dione hydrochloride] | 6.91 |  | 
13 | COc1cccc2c1[C@@H]1CN(CCCCn3c(=O)[nH]c4c(sc5c(OC)ccnc54)c3=O)C[C@H]1CO2 [Example 17, 3-[4-((3aS,9bR)-trans-9-Methoxy-1,2,3,3a,4,9b-hexahydro-[1]-benzopyrano[3,4-c]pyrrol-2-yl)butyl]-6-methoxy-pyrido[2',3':4,5]thieno[3,2-d]pyrimidine-2,4(1H,3H)-dione dihydrochloride] |  | 11 nM | 0.112 nM
14 | COc1cccc2c1[C@@H]1CN(CCCCn3c(=O)[nH]c4c(sc5ccc(Cl)nc54)c3=O)C[C@H]1CO2 [Example 25, 3-[4-((3aS,9bR)-trans-9-Methoxy-1,2,3,3a,4,9b-hexahydro-[1]-benzopyrano[3,4-c]pyrrol-2-yl)butyl]-8-chloro-pyrido[2',3':4,5]thieno[3,2-d]pyrimidine-2,4(1H,3H)-dione dihydrochloride] |  | 2 nM | 0.12 nM
15 | COc1cccc2c1[C@@H]1CN(CCCCn3c(=O)[nH]c4c(sc5ccncc54)c3=O)C[C@@H]1CO2 [Example 28, 3-[4-((3aR,9bR)-cis-9-Methoxy-1,2,3,3a,4,9b-hexahydro-[1]-benzopyrano[3,4-c]pyrrol-2-yl)butyl]-pyrido[3',4':4,5]thieno[3,2-d]pyrimidine-2,4(1H,3H)-dione dihydrochloride] |  | 4.37 nM | 0.407 nM
16 | COc1cccc2c1[C@@H]1CN(CCCCn3c(=O)[nH]c4c(sc5nc(Cl)ccc54)c3=O)C[C@H]1CO2 [Example 47, 3-[4-((3aS,9bR)-trans-9-Methoxy-1,2,3,3a,4,9b-hexahydro-[1]-benzopyrano[3,4-c]pyrrol-2-yl)butyl]-7-chloro-pyrido[3',2':4,5]thieno[3,2-d]pyrimidine-2,4(1H,3H)-dione hydrochloride] |  | 11.2 nM | 1.12 nM
17 | COc1ccc2c(c1)OC[C@H]1CN(CCn3c(=O)[nH]c4c(sc5ccccc54)c3=O)C[C@@H]21.Cl (racemic) [Example 63, 3-[2-((±)-cis-7-Methoxy-1,2,3,3a,4,9b-hexahydro-[1]-benzopyrano[3,4-c]pyrrol-2-yl)ethyl]-[1]benzthieno[3,2-d]pyrimidine-2,4(1H,3H)-dione hydrochloride] | 6.65 |  | 
18 | COc1cccc2c1[C@@H]1CN(CCCCn3c(=O)[nH]c4c(sc5c(OC)ccnc54)c3=O)C[C@@H]1CO2 [Example 18, 3-[4-((3aR,9bR)-cis-9-Methoxy-1,2,3,3a,4,9b-hexahydro[1]-benzopyrano[3,4-c]pyrrol-2-yl)butyl]-6-methoxy-pyrido[2',3':4,5]thieno[3,2-d]pyrimidine-2,4(1H,3H)-dione dihydrochloride] |  | 19.5 nM | 0.741 nM
19 | COc1ccc2c(c1)OC[C@H]1CN(CCCn3c(=O)[nH]c4c(sc5ccccc54)c3=O)C[C@@H]21.Cl (racemic) [Example 64, 3-[3-((±)-cis-7-Methoxy-1,2,3,3a,4,9b-hexahydro-[1]-benzopyrano[3,4-c]pyrrol-2-yl)propyl]-[1]benzthieno[3,2-d]pyrimidine-2,4(1H,3H)-dione hydrochloride] | 6.92 |  | 
